# Patent US4880779A, “Method of prevention or treatment of AIDS by inhibition of human immunodeficiency virus” (priority 1987, dated 1989)
# Where a SMILES comes first, the peptide text is derived from it.
# How the values were obtained:
# uninfected RH9 cells = system: uninfected RH9 cells
# Protocol: (§1) The commercially available peptides, carbobenzoxy-D- Phe-L-Phe-Gly (z-PPG) and Phe-Gly-Gly-Phe (PGGP) were obtained from Sigma Chemical Company, St. Louis, MO in granular form. Stock solutions were prepared to 20 mg/ml in dimethyl sulfoxide and stored at 0° C. A line of uninfected human lymphoblasts, RH9, and a line of lymphoblasts persistently infected with human immunodeficiency virus (HIV) were obtained from Dr. Robert Garry of Tulane Medical Center, New Orleans, La. and grown in RPMI medium containing 10% fetal calf serum obtained from Gibco, Grand Island, N.Y.
# To test this further incubated cultures of either uninfected RH9 cells, or HIV-infected carrier cultures, were incubated with PGGP for four days.
# [1] = system: human immunodeficiency virus (HIV); test: HIV-induced cell fusion: RH9 cells mixed with HIV-infected lymphoblasts; assay type: cell-based; settings: for Polykaryocytes Mean Diameter / Polykaryocytes Per mm^2: RH9 + HIV-RH9; for activity as inhibitor of HIV-induced cell fusion: RH9 + HIV-infected cells
# Protocol: as §1
# In the experimental protocol, RH9 cells are pretreated with various concentrations of either z-PPG or PGGP by adding a small aliquot of the peptide/DMSO solution to a suspension culture. After 1 hour, a suspension culture containing one-half the number of HIV-infected cells are added to the RH9-peptide mixture. The mixture is then incubated at 37° C. for 18 hours, and examined periodically for induction of cell fusion in the cell mixture.
compound,measurement,setting,value
"N[C@@H](Cc1ccccc1)C(=O)NCC(=O)NCC(=O)N[C@@H](Cc1ccccc1)C(=O)O [PGGP, Phe-Gly-Gly-Phe] (H-FGGF-OH)","effect on rate of growth, final cell density or cell viability",uninfected RH9 cells,no significant effect
carbobenzoxy-D- Phe-L-Phe-Gly [z-PPG],Polykaryocytes Mean Diameter,[1]; 0.08 M peptide,51 um
same,Polykaryocytes Per mm^2,[1]; 0.08 M peptide,105 per mm^2
same,Polykaryocytes Mean Diameter,[1]; 0.25 M peptide,37 um
same,Polykaryocytes Per mm^2,[1]; 0.25 M peptide,59 per mm^2
same,Polykaryocytes Mean Diameter,[1]; 0.8 M peptide,26 um
same,Polykaryocytes Per mm^2,[1]; 0.8 M peptide,4 per mm^2
same,"inhibition of fusion (phase photomicrographs, FIG. 1)","[1]; approximtely 1 mM peptide, 1 hour pretreatment of RH9, 18 hours at 37° C.",almost complete inhibition of fusion
same,minimal inhibitory dose,"[1]; inhibition of cell fusion under these experimental conditions, 18 hours",0.3 mM
z-Phe-Gly [reference compound],activity as inhibitor of HIV-induced cell fusion,[1],no demonstrable activity
"z-Phe-Leu [x-Phe-Leu, reference compound]",activity as inhibitor of HIV-induced cell fusion,[1],no demonstrable activity
same,activity as inhibitor of HIV-induced cell fusion,[1]; listed as z-Phe-Leu,ineffective
